Data on four compounds can be found in ChEMBL document CHEMBL1128776, “Palladium-catalyzed synthesis of (E)-5-(2-acylvinyl)-2-deoxyuridines and their antiviral and cytotoxic activities” (Bioorg Med Chem Lett, 1995).

Values after ≈ are worked out from the molar mass of the structure shown. A value given as a limit tells only on which side of the number the result lay.

For test [1], the system named is HEL. As to the kind of experiment: (§1) Evaluated in vitro for antiviral activity in human embryonic lung (HEL) cell cultures against cytomegalovirus (CMV) strain AD-169. It is filed as functional.
Test [2] has as its system HEL. The test can be described thus: Evaluated in vitro for antiviral activity in human embryonic lung (HEL) cell cultures against TK - VZV strain OKA. Format: functional, cell-based.
Test [3] relates to HEL. The test can be described thus: Cytotoxic concentration required to reduce cell growth HEL cells (after 3 days) by 50 %. It is filed as functional. The settings on record: Homo sapiens, 72 h.
Test [4] relates to HEL. The test can be described thus: Evaluated in vitro for antiviral activity in human embryonic lung (HEL) cell cultures against Varicella-Zoster virus (VZV) strain YS. Format: functional, cell-based.
Test [5] relates to Vero. As to the kind of experiment: Evaluated in vitro for antiviral activity in vero cell cultures against Parainfluenza virus type 3. It is filed as functional. The settings on record: Chlorocebus sabaeus.
In test [6] the test system is E6SM. As to the kind of experiment: In vitro antiviral activity in E6 cell cultures against vaccinia virus (VV). Format: functional. The settings on record: Homo sapiens.
Test [7] concerns E6SM. As to the kind of experiment: Minimum cytotoxic concentration against E6SM cells. It is filed as functional. The settings on record: Homo sapiens.
Test [8] deals with CCRF-CEM. The test can be described thus: Evaluated in vitro for cytostatic activity against CEM cells. Format: functional, cell-based. The settings on record: Homo sapiens.
Test [9] relates to Vero. The test can be described thus: Evaluated in vitro for antiviral activity in vero cell cultures against forest virus. It is filed as functional. The conditions noted are these: Chlorocebus sabaeus.
In test [10] the test system is E6SM. As to the kind of experiment: In vitro antiviral activity in E6 cell cultures against herpes simplex virus type 1 (HSV-1) TK- VMW 1837. It is filed as functional. The settings on record: Homo sapiens.
In test [11] the test system is Vero. The test can be described thus: Evaluated in vitro for antiviral activity in vero cell cultures against Sindbis virus. It is filed as functional. The conditions noted are these: Chlorocebus sabaeus.
Test [12] relates to FM3A. The test can be described thus: Evaluated in vitro for cytostatic activity against murine mammary carcinoma cells (FM3A). Format: functional, cell-based. The settings on record: Mus musculus.
In test [13] the test system is HEL. As to the kind of experiment: Evaluated in vitro for antiviral activity in human embryonic lung (HEL) cell cultures against TK + VZV strain OKA. It is filed as functional, cell-based.
The subject of test [14] is E6SM. The test can be described thus: In vitro antiviral activity in E6 cell cultures against herpes simplex virus type 2 (HSV-2) strain G. It is filed as functional. The settings on record: Homo sapiens.
For test [15], the system named is HEL. As to the kind of experiment: Minimum cytotoxic concentration against human embryonic lung (HEL) cells. It is filed as functional.
Test [16] has as its system Vero. As to the kind of experiment: Evaluated in vitro for antiviral activity in vero cell cultures against Reovirus type 1. It is filed as functional. The settings on record: Chlorocebus sabaeus.
The test system of test [17] is HEL. The test can be described thus: Evaluated in vitro for antiviral activity in human embryonic lung (HEL) cell cultures against TK- Varicella-Zoster virus (VZV) strain YS/R. It is filed as functional, cell-based.
For test [18], the system named is MOLT-4. As to the kind of experiment: Evaluated in vitro for cytostatic activity against human T-lymphocyte cells (Molt 4/C8). It is filed as functional, cell-based.
The test system of test [19] is E6SM. The test can be described thus: In vitro antiviral activity in E6 cell cultures against herpes simplex virus type 1 (HSV-1) TK- B2006. The settings on record: Homo sapiens. It is filed as functional.
Test [20] has as its system E6SM. The test can be described thus: In vitro antiviral activity in E6 cell cultures against herpes simplex virus type 1 (HSV-1) strain KOS. It is filed as functional. The settings on record: Homo sapiens.
Test [21] relates to L1210. As to the kind of experiment: Evaluated in vitro for cytostatic activity against murine leukemia cells (L1210). The conditions noted are these: Mus musculus. It is filed as functional, cell-based.
The subject of test [22] is HEL. The test can be described thus: Evaluated in vitro for antiviral activity in HeLa cell cultures against polio virus type 1. Format: functional. The settings on record: Homo sapiens.
Test [23] relates to Vero. The test can be described thus: Minimum cytotoxic concentration against vero cells. It is filed as functional. The conditions noted are these: Chlorocebus sabaeus.
Test [24] deals with E6SM. As to the kind of experiment: In vitro antiviral activity in E6 cell cultures against vesicular stomatitis virus (VSV). The conditions noted are these: Homo sapiens. It is filed as functional.
Test [25] relates to CCRF-CEM. The test can be described thus: 50% effective concentration required to protect CEM cells against the cytopathogenicity of HIV-1. The conditions noted are these: Homo sapiens. Format: functional, cell-based. On the technique in general: Protection from cytopathic effect is a common read-out in antiviral testing.
For test [26], the system named is Vero. As to the kind of experiment: Evaluated in vitro for antiviral activity in vero cell cultures against Coxsackie virus type B4. The conditions noted are these: Chlorocebus sabaeus. It is filed as functional.
For test [27], the system named is HEL. The test can be described thus: Evaluated in vitro for antiviral activity in human embryonic lung (HEL) cell cultures against cytomegalovirus (CMV) strain Davis. Format: functional, cell-based.
The test system of test [28] is HEL. As to the kind of experiment: Evaluated in vitro for antiviral activity in HeLa cell cultures against vesicular stomatitis virus (VSV). It is filed as functional. The settings on record: Homo sapiens.
Test [29] concerns HeLa. The test can be described thus: Minimum cytotoxic concentration against HeLa cells. The settings on record: Homo sapiens. It is filed as functional.
Test [30] concerns CCRF-CEM. The test can be described thus: 50% effective concentration required to protect CEM cells against the cytopathogenicity of HIV-2. It is filed as functional, cell-based. The settings on record: Homo sapiens.
Test [31] has as its system HEL. The test can be described thus: Evaluated in vitro for antiviral activity in human embryonic lung (HEL) cell cultures against TK- VZV strain 07/1. Format: functional, cell-based.
Test [32] concerns HEL. As to the kind of experiment: Evaluated in vitro for antiviral activity in human embryonic lung (HEL) cell cultures against TK+ VZV strain OKA. Format: functional, cell-based.
Test [33] relates to HEL. As to the kind of experiment: Evaluated in vitro for antiviral activity in human embryonic lung (HEL) cell cultures against TK+ Varicella-Zoster virus (VZV) strain YS. Format: functional, cell-based.
Test [34] concerns HEL. The description is as §1. It is filed as functional, cell-based.
For test [35], the system named is HEL. As to the kind of experiment: Evaluated in vitro for antiviral activity in human embryonic lung (HEL) cell cultures against […] TK- strain 07/1. It is filed as functional, cell-based.
The test system of test [36] is E6SM. The test can be described thus: Evaluated in vitro for its antiviral activity in E6 cell cultures against herpes simplex virus type 1 (HSV-1) TK- B2006. It is filed as functional. The conditions noted are these: Homo sapiens.
The subject of test [37] is E6SM. As to the kind of experiment: Evaluated in vitro for its antiviral activity in E6 cell cultures against herpes simplex virus type 1 (HSV-1) strain KOS. It is filed as functional. The conditions noted are these: Homo sapiens.
In test [38] the test system is E6SM. As to the kind of experiment: Evaluated in vitro for its antiviral activity in E6 cell cultures against herpes simplex virus type 2 (HSV-2) strain G. Format: functional. The conditions noted are these: Homo sapiens.
In test [39] the test system is E6SM. The test can be described thus: Evaluated in vitro for its antiviral activity in E6 cell cultures against vaccinia virus (VV). Format: functional. The settings on record: Homo sapiens.
Test [40] has as its system E6SM. As to the kind of experiment: Evaluated in vitro for its antiviral activity in E6 cell cultures against herpes simplex virus type 1 (HSV-1) TK- VMW 1837. It is filed as functional. The settings on record: Homo sapiens.
For test [41], the system named is E6SM. The test can be described thus: Evaluated in vitro for its antiviral activity in E6 cell cultures against vesicular stomatitis virus (VSV). The settings on record: Homo sapiens. It is filed as functional.

Usually IC50 stands for the concentration that inhibits the measured activity by half. As usually defined, the CC50 is the concentration at which the toxic effect on the cells reaches its halfway point. Broadly, the EC50 is the concentration that produces a half-maximal response. A higher EC50 goes with a need for much substance. Turning to `O=C(/C=C/c1cn([C@H]2C[C@H](O)[C@@H](CO)O2)c(=O)[nH]c1=O)c1ccccc1`, the MIC in test [1] is above 20 µg/mL; in [5] it was above 200 µg/mL; in test [6], above 10 µg/mL; in test [9], above 200 µg/mL; in [10], above 10 µg/mL; in test [11], above 200 µg/mL. The MIC is above 10 µg/mL in test [14]; above 200 µg/mL in test [16]; above 10 µg/mL in [19]; above 10 µg/mL in test [20]; above 100 µg/mL in test [22]; above 10 µg/mL in test [24]. For the same compound, the MIC was above 200 µg/mL in test [26] and 70 µg/mL (≈ 195 µM) in test [28]. The IC50 was above 20 µg/mL in [2]; above 20 µg/mL in test [4]; 24 µg/mL (≈ 67 µM) in test [8]; 32 µg/mL (≈ 89.3 µM) in test [12]; above 20 µg/mL in [13]; above 20 µg/mL in test [17]. Moreover, the IC50 in test [18] is 23 µg/mL (≈ 64.2 µM); in [21] it was 30 µg/mL (≈ 83.7 µM); in test [27], above 20 µg/mL. Moreover, the cytotoxic concentration (CC50) in test [3] amounted to 140 µg/mL (≈ 391 µM). Further, the MCC in test [7] is 40 µg/mL; in [15] it was 50 µg/mL; in [23], 400 µg/mL; in test [29] it was 20 µg/mL. The EC50 in test [25] and in [30] was above 20 µg/mL throughout.
In the case of `COc1ccc(C(=O)/C=C/c2cn([C@H]3C[C@H](O)[C@@H](CO)O3)c(=O)[nH]c2=O)cc1`, the MIC in [1] was above 5 µg/mL; in test [5], above 40 µg/mL; in test [6] it was above 10 µg/mL; in [9], above 40 µg/mL; in test [10] it was above 10 µg/mL; in test [11] it was above 40 µg/mL. Also, the MIC is above 10 µg/mL in test [14]; above 40 µg/mL in [16]; above 10 µg/mL in [19]; above 10 µg/mL in [20]; above 100 µg/mL in test [22]; above 10 µg/mL in [24]. The results for the MIC in test [26] and in test [28] were above 40 µg/mL and above 100 µg/mL, respectively. The compound further yielded a CC50 in [3] above 200 µg/mL. The IC50 was above 20 µg/mL in test [31]; above 20 µg/mL in test [4]; above 100 µg/mL in test [8]; above 100 µg/mL in test [12]; above 20 µg/mL in [17]; above 100 µg/mL in test [18]. Further, the IC50 in test [21] was above 100 µg/mL; in [27], above 5 µg/mL; in [32], above 20 µg/mL. Moreover, the MCC in [7] worked out at 40 µg/mL; in test [15], 20 µg/mL; in test [23] it was 100 µg/mL; in test [29], 20 µg/mL. Besides, the EC50 in [25] and in test [30] was above 40 µg/mL in each case.
Regarding `Nc1ccn(C[C@@H](CO)OCP(=O)(O)O)c(=O)n1.O.O` [CIDOFOVIR], the CC50 in test [3] is above 200 µg/mL. The IC50 was 0.055 µg/mL in test [31]; 0.09 µg/mL in test [33]; 0.05 µg/mL in test [17]; 0.075 µg/mL in [27]; 0.06 µg/mL in test [34]; 0.065 µg/mL in test [32]. In addition, in [15], the MCC is above 50 µg/mL.
Compound `O=c1[nH]c(=O)n([C@H]2C[C@H](O)[C@@H](CO)O2)cc1/C=C/Br` [BRIVUDINE] gave a CC50 in [3] of 150 µg/mL (≈ 450 µM). Besides, the IC50 in [4] was 0.002 µg/mL (≈ 0.006 µM); in [35], 5 µg/mL (≈ 15 µM); in [17] it was above 50 µg/mL; in [32], 0.0008 µg/mL (≈ 0.0024 µM). Further, the MIC was above 400 µg/mL in test [5]; above 400 µg/mL in [9]; above 400 µg/mL in [36]; above 400 µg/mL in test [11]; 0.02 µg/mL (≈ 0.06 µM) in [37]; 100 µg/mL (≈ 300 µM) in test [38]. Further, the MIC in test [39] is 10 µg/mL (≈ 30 µM); in test [16], above 400 µg/mL; in [22] it was above 400 µg/mL; in [40], above 400 µg/mL; in test [26], above 400 µg/mL; in test [28] it was above 400 µg/mL. For the same compound, the MIC in test [41] was above 400 µg/mL. Besides, the MCC in [7] is above 400 µg/mL; in test [15], above 50 µg/mL; in test [23], above 400 µg/mL; in test [29] it was above 400 µg/mL.
